Measured values reported in publication PMC3996367, “Profiling of drugs and environmental chemicals for functional impairment of neural crest migration in a novel stem cell-based test battery” (Archives of Toxicology, 2014).

How the values were obtained:
HEK293 cells = conditions: human
[1] = test system: mESC-derived neural stem cells (mESCn); conditions: mouse
[2] = test system: hESC-derived neural crest cells (NCC); conditions: human
[3] = design: method as in US EPA [2006]; conditions: ref US EPA [2006]; cited from earlier work
[4] = design: method as in US EPA [2006]; conditions: ref US EPA [2006]; cited from earlier work; remark: listed apart in the source
rats = conditions: cited from earlier work
Xenopus laevis embryos = test system: Xenopus laevis embryos; design: method as in Di Renzo et al. (2011); conditions: treated during early neurulation; craniofacial defects, bent forebrain, abnormal hindbrain segmentation; ref Di Renzo et al. (2011); cited from earlier work
[5] = test system: migration of hESC-derived neural crest cells (NCC); assay: MINC assay (migration inhibition of neural crest cells, UKN2); conditions: 48 h, in a non-cytotoxic concentration range

CC(C)(C)C(=O)C(Oc1ccc(Cl)cc1)n1cncn1 (stereo not drawn) [Triadimefon]
Highest non-cytotoxic conc. in HEK293 (HEK293 cells): 50.0 µM
Highest non-cytotoxic conc. in mESCn [1]: > 50.0 µM
Concentration for hit finding in NCC (highest non-cytotoxic concentration in the UKN2 test system) [2]: 50 µM
Octanol:water partition (Kow) [3]: 912
Blood:plasma concentration ratio [4]: 0.84
Free (unbound) fraction [4]: 0.11
Dose increasing testosterone levels and related effects in male offspring (rats; Wistar rats, perinatal exposure, ref Goetz et al. (2007)): 47 mg/kg/day
Dose causing the same neurotoxic symptoms (rats; chronic dietary exposure, male Wistar rats, ref US EPA (2006)): 54.6 mg/kg/day
Doses at which a range of toxic effects is observed (rats; effects on male fertility and CNS toxicity, ref Crowell et al. 2011): around 50 mg/kg/day
Dose causing transient CNS toxicity (hyperactivity, stereotyped behavior) (rats; single dose, oral gavage, adult male Long-Evans rats, ref Crofton et al. (2011)): 50 mg/kg
Concentration inducing abnormalities (Xenopus laevis embryos): 500 µM
Effect on NCC migration in concentration-response study [5]: concentration-dependent effect
